Laboratory results as given in US7196063B1, “Peptides and pharmaceutical compositions comprising same” (NST NeuroSurvival Technologies Ltd., priority 1999, dated 2007).
“Also recorded” adds a separate entry of the source. Where two headings read alike, the source gives them in different places.

Assays:
arterial thrombosis = conditions: intravenous administration; carotid artery injury model; cited from earlier work
[1] = within 5 minutes; rabbits; intravenous injection; cited from earlier work
apoptotic hepatocytes = assay type: in vivo, mice; conditions: data not shown
Experimental: Massive hepatic apoptosis can be induced within 1–2 hr in mice following intravenous injection of anti-Fas antibody (Ogasawara J. et al., 1993, Nature, 364, 806–809). […] Five-weeks-old male BALB/c mice were injected intravenously with 10 μg/animal of purified hamster anti-Fas mAb (Jo2, PharMingen, San Diego, Calif.) using the model described by Ogasawara et. al. (Nature, 1993, 364, 806–809). […] Injections were performed at different time intervals between 5 min–2 hr after antibody treatment. […] All animals were killed 2 hr after administration of antibody followed by organ removal. Heart, lung and liver were collected. Liver were sectioned transversely across the mid-portion of each lobe; organs were fixed in phosphate-buffered formalin for histological and immunohisto-chemical analyses.
Formalin fixed paraffin-embedded tissues were sectioned (5 μm) for staining with Hematoxylin/Eosin or other techniques. Endogenous peroxidase activity was blocked by incubation with 3% H2O2.
After washing with PBS, staining was developed with 3,3-diaminobenzidine tetrahydrochloride (DAB), and counterstained with Hematoxylin.
Liver sections from different lobes were used for detection of stained apoptotic cells compared to normal cells. Using light microscopy (×400), twenty fields of stained cells were evaluated. A ratio between the number of stained apoptotic hepatocytes versus stained normal hepatocytes in the field was defined. The stained cell's score (%) corresponds to the mean of the values for the twenty evaluated fields.
The percentage of apoptotic cells in the fields was estimated by evaluating parallel sections stained with Hematoxylin/Eosin. Analysis was performed blindly, since the pathologist performing the histological evaluation was unaware of the assignment of mice to the treatment or control group.
To quantitate the microscopic examination of the pharmacokinetics studies, the number of stained cells from 20 microscopic fields was counted.

HUVEC cells [2] = assay: Cell-ELISA: binding of anti β2GPI antibodies to HUVEC cells; assay type: cell-based, Human
Experimental: Human β2GPI is a plasma phospholipid binding protein that is required for the binding of autoantibodies in sera from patients with APS to cardiolipin (McNeil H P et al., 1990 Proc. Natl. Acad. Sci. 87, 4120–4124). […] Anti β2GPI antibodies are present in sera of APS patients. […] For cell-ELISA tests, HUVEC cells (at 40,000/well), were plated on 96 well tissue culture plates (Nunc) in 200 μl of the culture medium, and allowed to grow for 18–22 hours. Following 2 washes with Hepes buffer (10 mM Hepes pH 8, 140 mM NaCl) and 5 min incubation with the culture medium, the wells were incubated for 3 hr with 10% of normal plasma in PBS (as a source of β2 GPI protein), supplemented with 1/500 of goat anti-human Apolipoprotein-H (β2 GPI) (Affinity biologicals, PA). Parallel control wells were incubated with 10% of normal plasma from Ilex. Serial dilutions of NST500 compounds were prepared in plasma/PBS. Washes and development were as described for anti CL ELISA.
As presented in FIG. 5B, in the presence of plasma and absence of NST500, HUVEC cells supported binding of anti β2GPI to their surface. However, displacement of anti β2GPI by NST500 compounds in this system occurred in a concentration dependent manner, similar to the results obtained with CL.

HUVEC cells [3] = assay: Thrombin generation by HUVEC cells; assay type: cell-based, Human
From the text: In vivo, vascular endothelial cells are known to catalyze the formation of thrombin, due to expression of PS on their plasma membrane, at which pro-coagulant complexes are assembled (Van Hardee W L et al., 1994, Biochem J. 302, 305–312). Endothelial cells (EC) play an active role in determining the pro-coagulant/anti-coagulant balance in the vascular system (Gimborne M A et al., 1995, Ann. N. Y. Acad Sci 748, 122–132). Perturbed endothelial cells dramatically increase their pro-coagulant state. […] (FIG. 4D). When HUVEC cells (1.5×10^5) were incubated with the S-2366 substrate, thrombin generation was evident after a lag time of 12.5 minutes, which reflects the time required to assemble a functional complex on the HUVEC surface.
The effect of NST516 compound on HUVEC mediated-thrombin generation was studied.

apoptotic HeLa cells [4] = assay: Modified APTT test with apoptotic HeLa cells as pro-coagulant surface; assay type: cell-based
Experimental: Apoptotic and control HeLa cells were prepared as described for the FACS analysis. Equal numbers of apoptotic or control non-treated cells (5×10^4) in a volume of […], were mixed with 100 μl of normal plasma, incubated for 1 min at 37° C. in a bath and then calcified by addition of 100 μl of 25 mM CaCl2, and clotting time was measured. Inhibition of the pro-coagulant activity of the apoptotic cells by NST500 compounds was tested following pre-incubation of apoptotic cells for 20 min. at room temperature with increased concentrations of the different NST 500 compounds.
The results can be seen in FIG. 4B.

HUVEC cells [5] = assay: Binding to endothelial HUVEC cells by FACS analysis; assay type: cell-based, Human; conditions: 250 μM
Experimental: Binding detection was done using flow cytometric analysis to populations of HUVEC cells.
HUVEC (CC-2517, obtained from Clonetics, Walkersville, Md.) were grown on tissue culture flasks in Endothelial cell medium (EGM-2 Bulletkit, CC 3162, Clonetics). Mid-confluent cultures were harvested using Trypsine/EDTA solution (CC-5012, Clonetics). The cells were rinsed twice with TBS containing 2% BSA and kept on ice. Samples of 10^6 cells were tested for binding.
Cells were washed in 1 ml of TBS-BSA and centrifuged as before and then suspended in 100 μl of TBS-BSA containing streptavidin conjugated to fluorescein (FITC) for detection of the bound biotinylated compound. […] Thereafter, 400 μl of TBS-BSA were added and cells were entrifuged and re-suspended in 400 μl of TBS and taken for FACS analysis.

apoptotic HeLa cells [6] = conditions: 250 μM; FACS
Experimental: Detection of binding to apoptotic HeLa cells was performed according to the following procedure: Cells were plated on tissue culture plates at a density of 5×10^6 cells/10 cm dish, and grown in their normal medium at 37° C. for 18 hr. The medium was replaced with a medium containing 2% FCS and 500 μM of dopamine. Eighteen hours later, floating cells that were identified as advanced apoptotic cells were collected and transferred to a 50 ml tube. To evaluate the level of apoptosis in the cultures, aliquots of 10^5 cells from the cultures were plated on 48 wells plate and stained with Hoechst 33342 dye (Molecular Probes) at a concentration of 1 mg/ml for 20 min (as described above). Non-treated cells served as control. For collecting the non-treated cells, the medium of the culture was aspirated and discarded, the cells were rinsed with growing medium and 2 ml of medium were added to the culture dish. The cells were detached from the culture dish using a cell scraper and separated to single cells by passage through a syringe with a 18G needle.
The reactions were incubated at room temperature for 40 minutes and then 400 μl of TBS was added and cells were collected by centrifugation at 3000×g for 3 minutes. Cells were washed in 1 ml of TBS and centrifuged as before and detecting of the bound compound was performed using 100 μl of TBS containing streptavidin conjugated to fluorescein (FITC) (016-090-084 from Jackson ImmunoResearch lab. Inc.). Incubation was for 15 minutes at room temperature in the dark. Thereafter, 400 μl of TBS was added and cells were centrifuged and washed again with 1 ml of TBS as before, re-suspended in 400 μl of TBS and then taken for FACS analysis. The FACS analysis was performed on Beckton-Dickinson cell sorter, using lysis II software. Excitation was at 488 nm and emission for FITC detection was at 535 nm and for PI detection at 585 nm.

cardiolipin = test system: cardiolipin
From the text: The antiphospholipid antibody syndrom (APS) is a thrombophilic condition, characterized by a panel of antibodies that recognize anionic phospholipid-protein cofactor complexes. The antiphospholipid antibodies lupus anticoagulant and anticardiolipin, (present in high concentrations in SLE patients), are associated with several medical disorders including artherial and venous thrombosis, and recurrent pregnancy loss (Rand J H et al., 1998, Blood. 92, 1652–1660). […] Noncellular negatively charged phospholipid coated surface (cardiolipin) were chosen as a target for binding.
CL, (Diphosphatidylglycerol, c-1649, Sigma), prepared at 50 μg/ml in ethanol, was added to a 96 well plate (100 μl/well) using Immunolon 4 plates (Dynatech, Chantilly, Va.) and incubated for 16–20 hr for evaporation of ethanol. As control, wells were coated with ethanol only. The coated plates were washed 3 times with 100 μl of blocking buffer (PBS containing 0.3% gelatin (Sigma) and 1 mM EDTA) to block non specific binding. A 5 min incubation time was used between each wash. Normal plasma (Ilex, Italy, 84670-11) and plasma derived from SLE patients (either from Gradipore, Australia, LAHP-1, or from Biopool, Ventura, Calif.) were prepared according to the producer's instruction. The plasma was diluted 1/10 in the blocking buffer and was added to the CL and ethanol coated wells. […] Following 3 hr incubation, the plates were washed twice with PBS/BSA buffer (0.4% bovine serum albumine (BSA) in PBS). For detection of anti cardiolipin binding property of the tested plasma, the plates were incubated with a 1/10000 dilution of Peroxidase-conjugated affinity purified Goat anti-human IgG (Jackson Immunoresearch lab.) in PBS/BSA buffer for 1 hour. The plates were then washed 3 times with PBS/BSA buffer, and color reaction was developed by incubation with 100 ul of 0-phenylenedi-amine (OPD) dihydrochloride (Sigma p-7288) at a concentration of 0.4 mg/ml in 0.05 M phosphate citrate buffer, pH 5.0 supplemented with 4 ul of 30% hydrogen peroxide (Aldrich) for 10 ml mixture. To detect the level of NST500 compounds that were bound to CL, parallel wells were incubated with streptavidin conugated to OPD (SA-OPD, Jackson Immunoresearch lab.), that specifically recognize the biotinylated NST 500 compounds. The resulting colour changes were recorded at 405 nm using a Bio Tek Elx800 Eliza reader.

| Substance | inhibition of arterial thrombosis (arterial thrombosis) | clearance [1] | staining of apoptotic cells, exogenously added (apoptotic hepatocytes) | blocking of binding of anti β2 GPI antibodies to HUVEC cells (HUVEC cells [2]) | inhibiting activity relative to NST513 (HUVEC cells [2]) | delay in thrombin generation (HUVEC cells [3]) | potency in inhibiting thrombin generation compared to NST513 (HUVEC cells [3]) | thrombin generation by HUVEC cells, dose response (HUVEC cells [3]) | effect on clotting time of apoptotic cells (apoptotic HeLa cells [4]; 2.5–2.2 μM) | increase of clotting time of apoptotic cells (factor) (apoptotic HeLa cells [4]; 2.5–2.2 μM) | clotting time of apoptotic cells (apoptotic HeLa cells [4]; apoptotic cells alone 50 seconds, control cells 80 seconds) | fraction of HUVEC cells labeled (HUVEC cells [5]) | higher FITC labeled HUVEC cells as compared to NST513 (HUVEC cells [5]) | increase in labeled HUVEC cells as compared to background of control cells without compound (HUVEC cells [5]) | binding to apoptotic HeLa cells relative to NST513 (apoptotic HeLa cells [6]) | potency relative to NST513 in inhibiting binding of SLE plasma to CL (cardiolipin) | displacement of plasma derived from SLE patients from cardiolipin (cardiolipin; 1 μM) | lowering of binding of plasma derived from SLE patients to CL (factor) (cardiolipin; 1 μM) | displacement of plasma derived from SLE patients from cardiolipin (cardiolipin; 10 μM) | inhibition of binding of plasma derived from SLE patients to cardiolipin, dose response (cardiolipin; 1–10 μM) |
| --- | --- | --- | --- | --- | --- | --- | --- | --- | --- | --- | --- | --- | --- | --- | --- | --- | --- | --- | --- | --- |
| Annexin V: 320 amino acid protein of the annexin family with Ca2+-dependent binding to anionic phospholipid membranes | effectively achieved | 90% | same pattern of staining |  |  |  |  |  |  |  |  |  |  |  |  |  |  |  |  |  |
| Myristate-KKVSFFCKNKEKKC-K(SEQ ID NO:2) (biotin) [NST516] |  |  |  | dramatic and significant ability to block binding | two times better | 5 min | more potent compound in inhibiting thrombin generation | dose dependence inhibition of thrombin generation | marked and dose dependent inhibition of clotting time; also recorded: dose-dependent effect | 4.5 times | 225 s | 83% | 70% | 8 fold | 3.5 fold | 10 times | marked displacement | 2 | almost complete displacement | marked displacement of IgG |
